Legend:
Assay type in all cases: cell-based
[1] = test system: Bacillus subtilis C-3102 (FERM BP-1096); assay: Germination induction by ferulic acid, vanillic acid or p-coumaric acid at 300 ppm, turbidity change (Example 3); conditions: for turbidity (630 nm): 37° C., 150 rpm
Experimental: In each 500 mL of distilled water heated to 70° C. was added 0.3 g of ferulic acid, vanillic acid, or p-coumaric acid. After dissolving with stirring using a stirring rod with a propeller, filtration sterilization (0.45 μm filter) was conducted to prepare each 600 ppm-solution.
Next, 500 μL aliquots of bacterial suspension of Bacillus subtilis C-3102 (FERM BP-1096) prepared by a similar method as in Example 1 were mixed with 500 μL of each of the ferulic acid, vanillic acid, and p-coumaric acid solutions, and the mixtures were adjusted to 300 ppm of ferulic acid, vanillic acid, or p-coumaric acid concentration. Defining the time point of mixing as the reaction initiation (0 min), and continuing shaking (150 rpm) at 37° C., the turbidity (630 nm) was measured at 10, 20, 30, 40, 50, 60, 90, 120, and 180 min after the reaction initiation.

[2] = test system: Bacillus licheniformis (NBRC 14206); assay: Germination induction, change of turbidity (630 nm) of spore suspension; conditions: 300 ppm, 37° C., 150 rpm
Experimental: (§1) It is possible to determine whether spores have germinated, after measuring an OD 630 value (turbidity at 630 nm) of the liquid culture, based on decrease in the value (Literature: Microbiology, (1950), 4, 3, 330-338). Briefly, bacterial cells after culturing are washed with distilled water and diluted with distilled water to OD 630=1.0, which is then mixed with an equal volume of a germination induction solution, and the turbidity at 630 nm is measured by a UV spectrophotometer at room temperature.
(§2) TS culture media (Difco, Trypticase Soy Broth) were inoculated respectively with 11 strains listed in Table 1 and cultured at 50° C. with respect to Geobacillus stearothermophilus NBRC13737 and Aeribacillus pallidus TK6004 (FERM BP-08597), and at 37° C. with respect to the other 9 strains, until respective colonies were established. Then with respect to each of 11 strains, a loop full of a single colony was scratched by a platinum loop and suspended in 500 μL of sterilized water. In 1000 g of water was dissolved 8.0 g of a nutrient agar culture medium (Difco, Nutrient Broth), followed by high pressure steam sterilization (121° C., 15 min) to prepare a plate medium. The nutrient agar culture medium was smeared with each 100 μL of the suspension and cultured at 37° C. for 3 days.
(§3) Then, bacterial cells were suspended using a platinum loop in 500 μL of sterilized water, and the bacterial suspension was subjected to a heat shock at 65° C. for 35 min. Each 100 μL of the heat-shocked bacterial suspension and a not-heat-shocked bacterial suspension were smeared on the TS culture media respectively and cultured at 50° C. or 37° C. for 1 day.
(§4) After confirming the spore formation, the bacterial cells were collected by a bacteria spreader, suspended in 10 mL of sterilized distilled water, and then centrifuged (8340×g, 4° C., 15 min). The supernatant was removed and thereafter the bacterial cells were washed twice with 10 mL of sterilized water. After washing, the bacterial cells were suspended in 5 mL of sterilized water, and the suspension was filtrated by sterilized Kimwipes. The filtrate was centrifuged (8340×g, 4° C., 15 min) to remove the supernatant, and the rest was adjusted to the turbidity (at 630 nm) of 1.0 with sterilized water.
(§5) After dissolving with stirring using a stirring rod with a propeller, filtration sterilization (0.45 μm filter) was conducted to prepare each 600 ppm-solution.
(§6) Five hundred (500) μL of each solution and 500 μL of each bacterial spore suspension were mixed. […] Defining the time point of mixing as the reaction initiation (0 min), and continuing shaking (150 rpm) at 37° C., the turbidity (630 nm) was measured at 10, 20, 30, 40, 50, 60, 90, 120, and 180 min after the reaction initiation.
(§7) Since the turbidity at 630 nm decreases by germination of spores, it has been known that the turbidity at 630 nm can be used to determine the germination rate.

[3] = test system: Bacillus amyloliquefaciens (NBRC 3032); assay: as above; conditions: 300 ppm, 37° C., 150 rpm
Experimental: as §1, §2
as §3, with “day. As the results of the cultures, colony formation was confirmed also with respect to the heat-shocked bacterial suspensions, to confirm that spores were formed for all of 11 strains. Further, since the bacteria were not stained by Gram staining, it was reconfirmed that spores were formed.” for “day.”
as §4, §5, §6, §7

[4] = test system: Geobacillus stearothermophilus (NBRC 13737); assay: as above; conditions: 300 ppm, 37° C., 150 rpm
Experimental: as §1, §2
as §3, with “day. As the results of the cultures, colony formation was confirmed also with respect to the heat-shocked bacterial suspensions, to confirm that spores were formed for all of 11 strains. Further, since the bacteria were not stained by Gram staining, it was reconfirmed that spores were formed.” for “day.”
as §4, §5, §6, §7

[5] = test system: Aeribacillus pallidus TK6004 (FERM BP-08597); assay: as above; conditions: 300 ppm, 37° C., 150 rpm
Experimental: as §1, §2
as §3, with “day. As the results of the cultures, colony formation was confirmed also with respect to the heat-shocked bacterial suspensions, to confirm that spores were formed for all of 11 strains. Further, since the bacteria were not stained by Gram staining, it was reconfirmed that spores were formed.” for “day.”
as §4, §5, §6, §7

[6] = test system: Bacillus subtilis sp spizizenii (NBRC 101239); assay: as above; conditions: 300 ppm, 37° C., 150 rpm
Experimental: as §1, §2
as §3, with “day. As the results of the cultures, colony formation was confirmed also with respect to the heat-shocked bacterial suspensions, to confirm that spores were formed for all of 11 strains. Further, since the bacteria were not stained by Gram staining, it was reconfirmed that spores were formed.” for “day.”
as §4, §5, §6, §7

[7] = test system: Bacillus licheniformis (NBRC 12195); assay: as above; conditions: 300 ppm, 37° C., 150 rpm
Experimental: as §1, §2
as §3, with “day. As the results of the cultures, colony formation was confirmed also with respect to the heat-shocked bacterial suspensions, to confirm that spores were formed for all of 11 strains. Further, since the bacteria were not stained by Gram staining, it was reconfirmed that spores were formed.” for “day.”
as §4, §5, §6, §7

[8] = test system: Bacillus coagulans (NBRC 12583); assay: as above; conditions: 300 ppm, 37° C., 150 rpm
Experimental: as §1, §2
as §3, with “day. As the results of the cultures, colony formation was confirmed also with respect to the heat-shocked bacterial suspensions, to confirm that spores were formed for all of 11 strains. Further, since the bacteria were not stained by Gram staining, it was reconfirmed that spores were formed.” for “day.”
as §4, §5, §6, §7

[9] = test system: Bacillus subtilis C-3102 (FERM BP-1096); assay: as above; conditions: 300 ppm, 37° C., 150 rpm
Experimental: as §1, §2
as §3, with “day. As the results of the cultures, colony formation was confirmed also with respect to the heat-shocked bacterial suspensions, to confirm that spores were formed for all of 11 strains. Further, since the bacteria were not stained by Gram staining, it was reconfirmed that spores were formed.” for “day.”
as §4, §5, §6, §7

[10] = test system: Bacillus amyloliquefaciens (NBRC 3022); assay: as above; conditions: 300 ppm, 37° C., 150 rpm
Experimental: as §1, §2
as §3, with “day. As the results of the cultures, colony formation was confirmed also with respect to the heat-shocked bacterial suspensions, to confirm that spores were formed for all of 11 strains. Further, since the bacteria were not stained by Gram staining, it was reconfirmed that spores were formed.” for “day.”
as §4, §5, §6, §7

[11] = test system: Bacillus coagulans (NBRC 3887); assay: as above; conditions: 300 ppm, 37° C., 150 rpm
Experimental: as §1, §2
as §3, with “day. As the results of the cultures, colony formation was confirmed also with respect to the heat-shocked bacterial suspensions, to confirm that spores were formed for all of 11 strains. Further, since the bacteria were not stained by Gram staining, it was reconfirmed that spores were formed.” for “day.”
as §4, §5, §6, §7

[12] = 0 min after reaction initiation
[13] = 10 min after reaction initiation
[14] = 20 min after reaction initiation
[15] = 30 min after reaction initiation
[16] = 40 min after reaction initiation
[17] = 50 min after reaction initiation
[18] = 60 min after reaction initiation
[19] = 90 min after reaction initiation
[20] = 120 min after reaction initiation
[21] = 180 min after reaction initiation

O=C(O)/C=C/c1ccc(O)cc1 [p-Coumaric acid, p-coumaric acid]
germination confirmed by turbidity decrease [1]: decreased, thereby to confirm germination
turbidity (630 nm) [1, 12]: 0.545
turbidity (630 nm) [1, 13]: 0.523
turbidity (630 nm) [1, 14]: 0.506
turbidity (630 nm) [1, 15]: 0.488
turbidity (630 nm) [1, 16]: 0.475
turbidity (630 nm) [1, 17]: 0.460
turbidity (630 nm) [1, 18]: 0.420
turbidity (630 nm) [1, 19]: 0.392
turbidity (630 nm) [1, 20]: 0.360
turbidity (630 nm) [1, 21]: 0.319

C[C@H](N)C(=O)O [L-Ala, L-alanine, reference compound]
turbidity (630 nm) [2, 14]: 0.535
turbidity (630 nm) [2, 15]: 0.502
turbidity (630 nm) [2, 16]: 0.490
turbidity (630 nm) [2, 17]: 0.482
turbidity (630 nm) [2, 18]: 0.477
turbidity (630 nm) [2, 19]: 0.470
turbidity (630 nm) [2, 20]: 0.465
turbidity (630 nm) [2, 21]: 0.468
turbidity (630 nm) [3, 12]: 0.517
turbidity (630 nm) [3, 13]: 0.418
turbidity (630 nm) [3, 14]: 0.362
turbidity (630 nm) [3, 15]: 0.347
turbidity (630 nm) [3, 16]: 0.333
turbidity (630 nm) [3, 17]: 0.315
turbidity (630 nm) [3, 18]: 0.32
turbidity (630 nm) [3, 19]: 0.298
turbidity (630 nm) [3, 20]: 0.290
turbidity (630 nm) [3, 21]: 0.274
turbidity (630 nm) [4, 12]: 0.577
turbidity (630 nm) [4, 13]: 0.573
turbidity (630 nm) [4, 14]: 0.566
turbidity (630 nm) [4, 15]: 0.565
turbidity (630 nm) [4, 16]: 0.568
turbidity (630 nm) [4, 17]: 0.561
turbidity (630 nm) [4, 18]: 0.568
turbidity (630 nm) [4, 19]: 0.565
turbidity (630 nm) [4, 20]: 0.553
turbidity (630 nm) [4, 21]: 0.538
turbidity (630 nm) [5, 12]: 0.488
turbidity (630 nm) [5, 13]: 0.470
turbidity (630 nm) [5, 14]: 0.463
turbidity (630 nm) [5, 15]: 0.457
turbidity (630 nm) [5, 16]: 0.451
turbidity (630 nm) [5, 17]: 0.445
turbidity (630 nm) [5, 18]: 0.441
turbidity (630 nm) [5, 19]: 0.416
turbidity (630 nm) [5, 20]: 0.404
turbidity (630 nm) [5, 21]: 0.370
turbidity (630 nm) [6, 12]: 0.527
turbidity (630 nm) [6, 13]: 0.520
turbidity (630 nm) [6, 14]: 0.514
turbidity (630 nm) [6, 15]: 0.501
turbidity (630 nm) [6, 16]: 0.488
turbidity (630 nm) [6, 17]: 0.475
turbidity (630 nm) [6, 18]: 0.455
turbidity (630 nm) [6, 19]: 0.409
turbidity (630 nm) [6, 20]: 0.387
turbidity (630 nm) [6, 21]: 0.366
turbidity (630 nm) [7, 12]: 0.534
turbidity (630 nm) [7, 13]: 0.526
turbidity (630 nm) [7, 14]: 0.517
turbidity (630 nm) [7, 15]: 0.510
turbidity (630 nm) [7, 16]: 0.508
turbidity (630 nm) [7, 17]: 0.503
turbidity (630 nm) [7, 18]: 0.503
turbidity (630 nm) [7, 19]: 0.493
turbidity (630 nm) [7, 20]: 0.492
turbidity (630 nm) [7, 21]: 0.498
turbidity (630 nm) [8, 12]: 0.564
turbidity (630 nm) [8, 13]: 0.559
turbidity (630 nm) [8, 14]: 0.545
turbidity (630 nm) [8, 15]: 0.515
turbidity (630 nm) [8, 16]: 0.502
turbidity (630 nm) [8, 17]: 0.498
turbidity (630 nm) [8, 18]: 0.510
turbidity (630 nm) [8, 19]: 0.510
turbidity (630 nm) [8, 20]: 0.507
turbidity (630 nm) [8, 21]: 0.491
turbidity (630 nm) [9, 12]: 0.606
turbidity (630 nm) [9, 13]: 0.607
turbidity (630 nm) [9, 14]: 0.597
turbidity (630 nm) [9, 15]: 0.597
turbidity (630 nm) [9, 16]: 0.594
turbidity (630 nm) [9, 17]: 0.590
turbidity (630 nm) [9, 18]: 0.582
turbidity (630 nm) [9, 19]: 0.584
turbidity (630 nm) [9, 20]: 0.574
turbidity (630 nm) [9, 21]: 0.578
turbidity (630 nm) [10, 12]: 0.565
turbidity (630 nm) [10, 13]: 0.505
turbidity (630 nm) [10, 14]: 0.506
turbidity (630 nm) [10, 15]: 0.461
turbidity (630 nm) [10, 16]: 0.495
turbidity (630 nm) [10, 17]: 0.504
turbidity (630 nm) [10, 18]: 0.506
turbidity (630 nm) [10, 19]: 0.490
turbidity (630 nm) [10, 20]: 0.505
turbidity (630 nm) [10, 21]: 0.493
turbidity (630 nm) [11, 12]: 0.510
turbidity (630 nm) [11, 13]: 0.508
turbidity (630 nm) [11, 14]: 0.470
turbidity (630 nm) [11, 15]: 0.515
turbidity (630 nm) [11, 16]: 0.488
turbidity (630 nm) [11, 17]: 0.500
turbidity (630 nm) [11, 18]: 0.500
turbidity (630 nm) [11, 19]: 0.472
turbidity (630 nm) [11, 20]: 0.500
turbidity (630 nm) [11, 21]: 0.490
